Measurements from article PMC8802628, “Selective activation of PFKL suppresses the phagocytic oxidative burst” (Cell, 2021).

How the values were obtained:
recombinant NAMPT = molecular target: T1, recombinant NAMPT (Homo sapiens, UniProt P43490); assay: NAMPT activity assay; assay type: biochemical; conditions: 500 nM to 160 pM
T1 construct: purchased BPS Bioscience 71276-1
Procedure: NA-11 was diluted in ultra-pure water at concentrations between 500 nM to 160 pM, and preincubated with recombinant NAMPT for 30 min. NAMPT activity was measured using a fluorescence NAMPT Inhibitor Screening assay kit (BPS Bioscience).

PFKL = molecular target: T2, PFKL (Homo sapiens, UniProt P17858); assay: Photoaffinity labeling pull-down in human blood leukocytes; assay type: binding; conditions: 1 μM probe, competition with 10 μM NA-11
T2 construct: endogenous in cells; host or cells: THP-1 cell lysate
T2 sequence (P17858 2-780 limits assumed): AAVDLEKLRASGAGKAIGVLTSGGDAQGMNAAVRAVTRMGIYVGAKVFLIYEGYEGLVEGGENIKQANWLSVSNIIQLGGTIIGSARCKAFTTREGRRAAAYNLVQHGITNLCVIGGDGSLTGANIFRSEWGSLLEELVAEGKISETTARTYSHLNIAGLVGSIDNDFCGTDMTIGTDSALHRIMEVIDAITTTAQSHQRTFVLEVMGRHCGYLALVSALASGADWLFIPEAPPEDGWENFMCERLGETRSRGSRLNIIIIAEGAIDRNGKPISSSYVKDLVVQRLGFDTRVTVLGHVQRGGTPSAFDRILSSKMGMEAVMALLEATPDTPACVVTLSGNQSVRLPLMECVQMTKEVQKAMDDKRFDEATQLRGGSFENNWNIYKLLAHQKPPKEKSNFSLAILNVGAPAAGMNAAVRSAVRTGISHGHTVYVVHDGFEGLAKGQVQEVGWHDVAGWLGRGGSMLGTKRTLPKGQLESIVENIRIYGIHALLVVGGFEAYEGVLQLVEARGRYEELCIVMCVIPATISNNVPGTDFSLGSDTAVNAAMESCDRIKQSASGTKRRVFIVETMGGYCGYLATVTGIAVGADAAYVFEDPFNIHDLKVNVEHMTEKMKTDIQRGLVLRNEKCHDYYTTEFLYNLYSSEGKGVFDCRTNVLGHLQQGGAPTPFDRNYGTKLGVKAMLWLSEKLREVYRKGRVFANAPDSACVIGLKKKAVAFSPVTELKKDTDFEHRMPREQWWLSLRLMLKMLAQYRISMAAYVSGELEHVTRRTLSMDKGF
Procedure: Buffy coats (100 mL) were diluted with ice-cold water (540 mL) for 30 s to lyse red blood cells. Following addition of 10 x HBSS buffer (50 mL) leukocytes were pelleted for 3 min at 300 x g, then washed twice in D-PBS and resuspended in RPMI medium. Cells (2 × 10^7) were plated on 15-cm dishes in DMSO vehicle, 1 μM PALP1 or 1 μM PALP6 for 30 min at 37°C. For competition, 10 μM NA-11 was added for 15 min, and then 1 μM PALP1 was added for an additional 30 min. To crosslink the photoaffinity probe, cells were UV-irradiated (High intensity mercury spot lamp, 100W, 365 nm, UVP) in RPMI for 5 min on ice. Cells were lysed in 200 μL 10 mM Tris pH 7.5, 150 mM NaCl, 1% NP-40, 2.5 mM MgCl2, 0.5 mM CaCl2, 2% glycerol, 10 μg/mL DNase-I, and 1 x EDTA-free Protease inhibitor cocktail. Lysates from 5 plates for each condition were pooled and incubate 10 min on ice.
Biotin-DADPS tagging, biotin-streptavidin affinity purification, and on-bead digestion were performed as described ([Hewings et al., 2018]). Briefly, lysates were cleared by centrifugation and the lysate concentration adjusted to 5 mg/mL. Streptavidin Ultralink Resin (100 μL of 50% slurry, Pierce) was washed twice with PBS and mixed with 1 mL of lysate for 30 min at room temperature. […]
For the classical TPP, quantitative data from each temperature were used to generate a thermal titration curve and calculate a melting point. […]

T1 sequence (P43490 whole entry, species assumed): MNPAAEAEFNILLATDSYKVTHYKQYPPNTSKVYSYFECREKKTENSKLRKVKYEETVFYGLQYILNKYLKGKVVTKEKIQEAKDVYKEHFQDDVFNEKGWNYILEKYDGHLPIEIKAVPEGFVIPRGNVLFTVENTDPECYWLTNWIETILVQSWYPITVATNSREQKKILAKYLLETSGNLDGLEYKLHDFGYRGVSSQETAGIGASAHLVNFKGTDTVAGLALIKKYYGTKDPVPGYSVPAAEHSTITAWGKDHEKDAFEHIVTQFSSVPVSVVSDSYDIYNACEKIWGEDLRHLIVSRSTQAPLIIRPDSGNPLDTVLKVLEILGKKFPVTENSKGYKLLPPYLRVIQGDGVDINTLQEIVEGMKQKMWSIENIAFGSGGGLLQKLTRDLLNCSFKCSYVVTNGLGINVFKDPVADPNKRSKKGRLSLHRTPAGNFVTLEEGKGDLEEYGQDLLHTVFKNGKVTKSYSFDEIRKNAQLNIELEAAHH

CC(=O)Nc1ccc2c(c1)OCc1cc(-c3ccccc3C#CCCCO)nn1C2 [NA-11]
activity of recombinant NAMPT (recombinant NAMPT): did not affect the activity of recombinant NAMPT | photoaffinity labeling / pull-down of PFKL (PFKL): competed effectively by NA-11
